Reference: patent US20200172483A1, “HETEROCYCLIC SMALL MOLECULE MODULATORS OF HUMAN STING” (Curadev Pharma Limited, priority 2017, published 2020)

How the values were obtained:
WT/R232 STING protein = molecular target: T1, WT/R232 STING protein (Homo sapiens, UniProt Q86WV6, H232R); assay: Luciferase reporter assay in HEK293T-hSTING-Luciferase cells (R232); assay type: cell-based; details: 20 hr stimulation, EC50 range
T1 construct: host or cells: HEK293T
How it was run: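 Readout is fold-induction over baseline of secreted luciferase, measured by luminescence after 20 hr compound stimulation. Cells: clonally selected HEK293T stably carrying hSTING (R232) and a luciferase reporter under five tandem ISREs fused to an ISG54 minimal promoter.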

hSTING (H232) = molecular target: T2, hSTING (H232) (Homo sapiens, UniProt Q86WV6); assay: Luciferase reporter assay in HEK293T-hSTING-Luciferase cells (H232/REF polymorph); assay type: cell-based; details: EC50 range
T2 construct: host or cells: HEK293T
Text: (§1) • a) Stable STING expressing cells—Stable HEK293T STING-expressing cell lines were generated using plasmids purchased from Invivogen, CA, USA, that contain STING cDNA cloned into the pUNO-1 vector under hEF1-HTLV promoter and containing the Blasticidin selection cassette. The plasmids hSTING (R232), hSTING (H232), hSTING (HAQ) were directly procured from Invivogen while hSTING (AQ) and hSTING (Q) were derived from hSTING (HAQ) and hSTING (R232) plasmids respectively by using a PCR based site directed mutagenesis method. These vectors were individually transfected into HEK293T cells using Lipofectamine (Invitrogen) and transfected cells were selected under Blasticidin selection. These transfected cells were further subjected to clonal selection using the limiting dilution method to obtain clonally pure populations of HEK cells transfected with each of the above mentioned human STING variants. Only those clones were selected in which ligand independent activation of STING was minimal. • b) Stable Luciferase reporter gene expressing cells—Stable HEK293T Luciferase reporter gene expressing cell lines were generated using pCDNA4 plasmids under an IRF-inducible promoter. This promoter is comprised of five tandem interferon-stimulated response elements (ISRE) fused to an ISG54 minimal promoter. This vector was transfected into HEK293T cells using Lipofectamine (Invitrogen) and transfected cells were selected under Zeocin selection. These transfected cells were further subjected to clonal selection using the limiting dilution method to obtain clonally pure populations of HEK cells transfected the Luciferase reporter construct. Only those clones were selected in which ligand independent induction of luciferase was minimal.
(§2) 5×10^5 clonally selected HEK293T-hSTING-Luciferase cells were seeded in 384-well plates in growth medium and stimulated with novel compounds. After 20 hr of stimulation supernatant were removed and secretary reporter gene activity were measured using the Quanti-Luc detection system (Invivogen) on a Spectramax i3X luminometer.
(§3) The 5 major polymorphisms of human STING are shown in FIG. 1, with their prevalence in human populations indicated.

hSTING (HAQ) = molecular target: T3, hSTING (HAQ) (Homo sapiens, UniProt Q86WV6, G230A/H232R/R293Q/R71H); assay: Luciferase reporter assay in HEK293T-hSTING-Luciferase cells (HAQ polymorph); assay type: cell-based; details: EC50 range
T3 construct: host or cells: HEK293T
Text: as §1, §2, §3

IRF pathway = assay: Reporter gene expression assay for IRF axis in THP1-Dual cells (secreted Lucia luciferase); assay type: cell-based, human; details: Homo sapiens, THP1-Dual, 20 h, 20 hr stimulation, QUANTI-Luc, EC50 range, read-out: THP-IRF activity
Experimental: (§4) THP1-Dual™ cells (Invivogen) were derived from the human THP-1 monocyte cell line by stable integration of two inducible reporter constructs. As a result, THP1-Dual™ cells allow the simultaneous study of the NF-κB pathway, by monitoring the activity of secreted SEAP, and the IRF pathway, by assessing the activity of a secreted luciferase (Lucia). […] THP1-Dual™ cells were seeded in 384-well plates in growth medium and stimulated with novel compounds. After 20 hr of stimulation supernatant were removed and reporter proteins were readily measured in the cell culture supernatant using QUANTI-Blue™ (Invivogen), a SEAP detection reagent, and QUANTI-Luc™ (Invivogen), a luciferase detection reagent on a Spectramax i3X luminometer. EC50 value ranges for exemplary compounds tested in the above assay are given.

NF-κB pathway = assay: Reporter gene expression assay for NFκB axis in THP1-Dual cells (secreted SEAP); assay type: cell-based, human; details: Homo sapiens, THP1-Dual, 20 h, 20 hr stimulation, QUANTI-Blue SEAP, EC50 range, read-out: THP-NFKB activity
Experimental: as §4

T2 sequence (Q86WV6 whole entry): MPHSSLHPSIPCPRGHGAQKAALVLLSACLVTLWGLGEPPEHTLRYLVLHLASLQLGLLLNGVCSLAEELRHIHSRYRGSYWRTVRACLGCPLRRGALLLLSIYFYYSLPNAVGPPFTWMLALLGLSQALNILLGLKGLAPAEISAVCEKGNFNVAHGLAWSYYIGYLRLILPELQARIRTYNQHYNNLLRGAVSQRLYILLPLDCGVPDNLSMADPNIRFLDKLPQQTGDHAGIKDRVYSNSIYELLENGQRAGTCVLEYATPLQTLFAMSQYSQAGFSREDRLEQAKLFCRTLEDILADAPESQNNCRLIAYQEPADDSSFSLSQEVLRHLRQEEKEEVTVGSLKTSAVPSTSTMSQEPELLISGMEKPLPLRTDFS
T3 sequence (Q86WV6 whole entry R71H/G230A/H232R/R293Q): as the sequence (Q86WV6 whole entry) above, with R71H, G230A, H232R, R293Q counted along it
T1 sequence (Q86WV6 whole entry H232R): as the sequence (Q86WV6 whole entry) above, with H232R counted along it

## CC1(C)C(=O)N(Cc2cccc(Cl)c2)c2cc(C(=O)NCc3c(F)cc(F)cc3F)ccc21 [Example 19, 1-(3-chlorobenzyl)-3,3-dimethyl-2-oxo-N-(2,4,6-trifluorobenzyl)indoline-6-carboxamide]
WT/R232 STING protein
  EC50: ≤ 1 µM
hSTING (H232)
  EC50: 1 to 10 µM
hSTING (HAQ)
  EC50: 1 to 10 µM
IRF pathway
  EC50: > 10 µM
NF-κB pathway
  EC50: 1 to 10 µM

## CC1(C)C(=O)N(Cc2ccc(F)cc2)c2cc(C(=O)NCc3c(F)cc(F)cc3F)ccc21 [Example 20, 1-(4-fluorobenzyl)-3,3-dimethyl-2-oxo-N-(2,4,6-trifluorobenzyl)indoline-6-carboxamide]
WT/R232 STING protein
  EC50: ≤ 1 µM
hSTING (H232)
  EC50: 1 to 10 µM
hSTING (HAQ)
  EC50: ≤ 1 µM
IRF pathway
  EC50: 1 to 10 µM
NF-κB pathway
  EC50: 1 to 10 µM

## CC1(C)C(=O)N(Cc2cc(F)cc(F)c2)c2cc(C(=O)NCc3cc4ccccc4o3)ccc21 [Example 23, N-(benzofuran-2-ylmethyl)-1-(3,5-difluorobenzyl)-3,3-dimethyl-2-oxoindoline-6-carboxamide]
WT/R232 STING protein
  EC50: ≤ 1 µM
hSTING (H232)
  EC50: 1 to 10 µM
hSTING (HAQ)
  EC50: 1 to 10 µM
IRF pathway
  EC50: > 10 µM
NF-κB pathway
  EC50: 1 to 10 µM

## CC1(C)C(=O)N(Cc2c(F)cccc2Cl)c2cc(C(=O)NCc3ccc(F)cc3)ccc21 [Example 25, 1-(2-chloro-6-fluorobenzyl)-N-(4-fluorobenzyl)-3,3-dimethyl-2-oxoindoline-6-carboxamide]
WT/R232 STING protein
  EC50: ≤ 1 µM
hSTING (H232)
  EC50: 1 to 10 µM
hSTING (HAQ)
  EC50: 1 to 10 µM
IRF pathway
  EC50: > 10 µM
NF-κB pathway
  EC50: 1 to 10 µM

## CC1(C)C(=O)N(Cc2c(F)cccc2Cl)c2cc(C(=O)NCc3ccc(F)cc3F)ccc21 [Example 26, 1-(2-chloro-6-fluorobenzyl)-N-(2,4-difluorobenzyl)-3,3-dimethyl-2-oxoindoline-6-carboxamide]
WT/R232 STING protein
  EC50: ≤ 1 µM
hSTING (H232)
  EC50: ≤ 1 µM
hSTING (HAQ)
  EC50: ≤ 1 µM
IRF pathway
  EC50: 1 to 10 µM
NF-κB pathway
  EC50: 1 to 10 µM

## CC1(C)C(=O)N(Cc2c(F)cccc2Cl)c2cc(C(=O)NCc3c(F)cccc3F)ccc21 [Example 27, 1-(2-chloro-6-fluorobenzyl)-N-(2,6-difluorobenzyl)-3,3-dimethyl-2-oxoindoline-6-carboxamide]
WT/R232 STING protein
  EC50: ≤ 1 µM
hSTING (H232)
  EC50: 1 to 10 µM
hSTING (HAQ)
  EC50: ≤ 1 µM
IRF pathway
  EC50: 1 to 10 µM
NF-κB pathway
  EC50: 1 to 10 µM

## CC1(C)C(=O)N(Cc2c(F)cccc2Cl)c2cc(C(=O)NCc3nc4ccccc4o3)ccc21 [Example 30, N-(benzo[d]oxazol-2-ylmethyl)-1-(2-chloro-6-fluorobenzyl)-3,3-dimethyl-2-oxoindoline-6-carboxamide]
WT/R232 STING protein
  EC50: 1 to 10 µM
hSTING (H232)
  EC50: 1 to 10 µM
hSTING (HAQ)
  EC50: 1 to 10 µM
IRF pathway
  EC50: > 10 µM
NF-κB pathway
  EC50: 1 to 10 µM

## CC1(C)C(=O)N(Cc2cccc(F)c2F)c2cc(C(=O)NCc3c(F)cc(F)cc3F)ccc21 [Example 33, 1-(2,3-difluorobenzyl)-3,3-dimethyl-2-oxo-N-(2,4,6-trifluorobenzyl)indoline-6-carboxamide]
WT/R232 STING protein
  EC50: ≤ 1 µM
hSTING (H232)
  EC50: ≤ 1 µM
hSTING (HAQ)
  EC50: ≤ 1 µM
IRF pathway
  EC50: 1 to 10 µM
NF-κB pathway
  EC50: 1 to 10 µM

## CC1(C)C(=O)N(Cc2c(F)cccc2Cl)c2cc(C(=O)NCc3cc4ccccc4o3)ccc21 [Example 36, N-(benzofuran-2-ylmethyl)-1-(2-chloro-6-fluorobenzyl)-3,3-dimethyl-2-oxoindoline-6-carboxamide]
WT/R232 STING protein
  EC50: ≤ 1 µM
hSTING (H232)
  EC50: 1 to 10 µM
hSTING (HAQ)
  EC50: 1 to 10 µM
IRF pathway
  EC50: 1 to 10 µM
NF-κB pathway
  EC50: 1 to 10 µM

## CC1(C)C(=O)N(Cc2cccc(C(N)=O)c2)c2cc(C(=O)NCc3c(F)cc(F)cc3F)ccc21 [Example 37, 1-(3-carbamoylbenzyl)-3,3-dimethyl-2-oxo-N-(2,4,6-trifluorobenzyl)indoline-6-carboxamide]
WT/R232 STING protein
  EC50: 1 to 10 µM
hSTING (H232)
  EC50: 1 to 10 µM
hSTING (HAQ)
  EC50: > 10 µM
IRF pathway
  EC50: > 10 µM
NF-κB pathway
  EC50: > 10 µM
